Where two headings read alike, the source gives them in different places. Residues, ends and D or L forms follow the SMILES beside them. *: point of attachment. Cbz = O=C(OCc1ccccc1)*; OtBu = CC(C)(C)O*
Legend:
BV-2 microglia = test: Nitric oxide measurement (Griess reaction) in LPS-activated BV-2 microglia; type: cell-based, murine; conditions: BV-2 cells treated with LPS and NMMA (0, 50, 100 μM), 24 hours
Protocol: (§1) The BV-2 cells were grown and maintained in DMEM (Dulvecco's modified Eagle's medium) (Invitrogen) supplemented with 10% FCS (fetal calf serum) and penicillin/streptomycin at 37° C. in a humidified incubator under 5% CO2. To activate BV-2, the cells were treated with LPS (100 μg/ml; Sigma) for 24 hours. After LPS treatment for 24 hours with or without inducible nitric-oxide synthase(iNOS) inhibitor, 0, 50, and 100 μM N^G-monomethyl-L-arginine(L-NMMA) (Sigma), proteins were extracted with radioimmunoprecipitation assay buffer (1× phosphate-buffered saline (PBS), 1% Nonidet P-40, 0.5% sodium deoxycholate and 0.1% SDS) containing protease inhibitors from BV-2 harvest, followed by analysis for TGase 2 activity.
Accumulated nitric oxide was measured in the cell supernatant after LPS treatment for 24 hours by Griess reaction. A 200 μl aliquot of the cell supernatant in each well of a 96-well microtiter plate was mixed with 100 μl of the Griess reagent [1% sulfanilamide (Fluka), 0.1% naphthylethylenediamine dihydrochloride (Fluka), 2.5% H3PO4], and the absorbance was read at 540 nm using a plate reader.

TGase 2 [1] = test: TGase activity assay in LPS-activated BV-2 microglia; type: cell-based, murine; conditions: BV-2 cells treated with LPS and NMMA (0, 50, 100 μM), 24 hours
Protocol: as §1
Enzymatic activity was determined using a modified TGase assay method for measuring the incorporation of [1,4-^14C] putrescine into succinylated casein.

TGase 2 [2] = target: T1, TGase 2 (Homo sapiens, UniProt P21980); test: Effect of TGase inhibitors on reduced I-κBα in SH-SY5Y/TG cells; type: cell-based; conditions: SH-SY5Y/TG cells incubated for 30 min with TGase inhibitor, Western blotting
T1 construct: carry a pcDNA5/FRT vector containing a full-length human TGase 2 gene; expressed in transfected cells; host or cells: human neuroblastoma SH-SY5Y, Flp-In system, pcDNA5/FRT vector
T1 sequence (P21980 1-687): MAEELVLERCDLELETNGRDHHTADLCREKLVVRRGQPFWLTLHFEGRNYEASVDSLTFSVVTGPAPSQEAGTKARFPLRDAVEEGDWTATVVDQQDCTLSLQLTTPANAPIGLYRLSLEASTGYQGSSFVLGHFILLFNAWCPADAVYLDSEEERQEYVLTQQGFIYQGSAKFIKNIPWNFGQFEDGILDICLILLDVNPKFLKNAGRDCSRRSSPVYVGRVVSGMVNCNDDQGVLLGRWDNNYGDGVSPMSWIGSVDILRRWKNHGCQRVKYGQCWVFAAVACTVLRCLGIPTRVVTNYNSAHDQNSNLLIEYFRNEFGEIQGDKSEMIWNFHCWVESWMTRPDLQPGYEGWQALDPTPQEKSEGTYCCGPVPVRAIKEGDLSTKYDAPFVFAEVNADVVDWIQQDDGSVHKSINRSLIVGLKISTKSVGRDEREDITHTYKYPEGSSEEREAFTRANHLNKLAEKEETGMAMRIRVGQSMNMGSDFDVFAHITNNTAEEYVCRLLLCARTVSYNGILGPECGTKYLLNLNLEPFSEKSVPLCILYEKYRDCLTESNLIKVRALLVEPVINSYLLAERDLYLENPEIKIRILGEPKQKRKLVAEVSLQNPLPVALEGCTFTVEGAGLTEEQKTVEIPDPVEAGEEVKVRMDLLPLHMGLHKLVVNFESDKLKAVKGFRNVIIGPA
Excerpt: Cystamine is known to inhibit TGase activity by blocking the access of a glutamine residue in substrate proteins to the TGase active site. Iodoacetamide (Sigma) is also known to inhibit TGase activity as a strong competitive irreversible inhibitor. […] E2 (DPVKG: SEQ. ID. NO. 6) and R2 (KVLDGQDP: SEQ. ID. NO. 7) were designed to contain a pro-elafin sequence and a pro-elafin/antiflamnin sequence, respectively, therein. […] In order to examine the effect of TGase inhibitors on the decrease in I-κBα level, the SH-SY5Y/TG culture was treated with different inhibitors for 30 min, followed by the separation of the cytosolic fraction using a nuclear extract kit (Sigma).
The effect of TGase 2 expression on the level of I-κBα was examined in EcR 293 and SH-SY5Y cells. To control TGase 2 expression, a tetracycline-induced expression system was applied to EcR 293 cell line (FIG. 6A). In FIG. 6A, EcR 293 cells were collected before incubation (left), after incubation in a medium containing 1 μg/ml of tetracycline for 24 hours (center), and after incubation in a medium containing 1 μg/ml of tetracycline for 24 hours and then in a fresh medium containing no tetracycline for an additional 24 hours (right). […] To examine whether TGase 2 inhibitors can result in the same effect, SH-SY5Y/TG cells were incubated for 30 min with a TGase inhibitor, such as cystamine, idoacetamide, E2 peptide, or R2 peptide.

I-κBα = test: Proteasome inhibitor treatment of SH-SY5Y/TG cells, Western blotting for I-κBα and ubiquitin; conditions: SH-SY5Y/TG cells incubated for 6 hours with proteasome inhibitor; for increased ubiquitinated I-κBα: Western blotting; for level of I-κBα: cytosol
Protocol: The cytosolic fractions were prepared using a nuclear extract kit (Sigma). The samples were separated from 10-20% gradient SDS gels in Tricine buffer (Invitrogen) and then transferred onto a polyvinylidene difluoride membrane (Invitrogen). Western blotting was conducted as established previously. Antibodies to NF-κBp65, I-κBα, phospho-IκB-α (Ser32), I-κB kinaseβ(IKK-β), phospho-IKKα (Ser180)/IKKβ(Ser181), and NF-κB activating kinase were obtained from Cell Signaling Technologies (Beverly, Mass.). Antibodies to NIK, IKKα, and α-topoisomerase I were obtained from Santa Cruz Biotechnology (Santa Cruz, Calif.). […] The blot was then developed by ECL (enhanced chemiluminescence) (Pierce, Milwaukee, Wis.). To determine the purity of extracted cytosolic and nuclear fractions, anti-LDH and anti-α-topoisomerase were used for the cytosolic fraction and the nuclear fraction, respectively.
To examine whether TGase 2 reduces the level of I-κBα via a ubiquitin-proteasome system, SH-SY5Y/TG cells were incubated for 6 hours with proteasome inhibitors, such as MG132, lactacystin, or carbobenzoxy-L-isoleucyl-gamma-t-butyl-L-alanyl-L-leucinal (FIG. 3A). The cytosol was extracted from cells and was carried out Western blotting for I-κBα and ubiquitin. […] If NF-κB expression induced by TGase 2 depends on the IKK/ubiquitin/proteasome pathway, the level of both I-κBα and ubiquitinated I-κBα should be increased.

SH-SY5Y/TG cells [3] = system: SH-SY5Y/TG cells
SH-SY5Y/TG cells [4] = test: LDH activity in medium and caspase-9 expression in proteasome inhibitor-treated SH-SY5Y/TG cells; conditions: SH-SY5Y/TG cells incubated for 6 hours with proteasome inhibitor
[5] = target: full-length human NF-κB (p65) (human) (UniProt Q04206); test: densitometry of co-immunoprecipitation / Western blot
Sequence of full-length human NF-κB (p65) (human) (Q04206 whole entry): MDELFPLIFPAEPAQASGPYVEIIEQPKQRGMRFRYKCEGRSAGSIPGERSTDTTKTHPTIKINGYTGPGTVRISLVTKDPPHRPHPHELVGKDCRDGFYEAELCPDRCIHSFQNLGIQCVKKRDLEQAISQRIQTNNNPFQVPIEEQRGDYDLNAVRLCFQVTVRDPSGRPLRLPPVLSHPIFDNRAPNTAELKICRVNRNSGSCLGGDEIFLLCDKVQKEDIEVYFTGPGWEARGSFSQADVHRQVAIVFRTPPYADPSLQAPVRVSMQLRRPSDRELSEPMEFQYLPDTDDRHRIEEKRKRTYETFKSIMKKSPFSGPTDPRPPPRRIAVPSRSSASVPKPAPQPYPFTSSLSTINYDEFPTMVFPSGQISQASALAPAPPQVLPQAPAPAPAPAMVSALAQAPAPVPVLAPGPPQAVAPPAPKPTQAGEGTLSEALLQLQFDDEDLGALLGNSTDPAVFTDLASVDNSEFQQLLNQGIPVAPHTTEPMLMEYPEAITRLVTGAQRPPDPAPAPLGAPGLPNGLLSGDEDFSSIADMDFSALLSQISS

[6] = target: T2, human recombinant NF-κB(p52) protein, Q00653
T2 chain: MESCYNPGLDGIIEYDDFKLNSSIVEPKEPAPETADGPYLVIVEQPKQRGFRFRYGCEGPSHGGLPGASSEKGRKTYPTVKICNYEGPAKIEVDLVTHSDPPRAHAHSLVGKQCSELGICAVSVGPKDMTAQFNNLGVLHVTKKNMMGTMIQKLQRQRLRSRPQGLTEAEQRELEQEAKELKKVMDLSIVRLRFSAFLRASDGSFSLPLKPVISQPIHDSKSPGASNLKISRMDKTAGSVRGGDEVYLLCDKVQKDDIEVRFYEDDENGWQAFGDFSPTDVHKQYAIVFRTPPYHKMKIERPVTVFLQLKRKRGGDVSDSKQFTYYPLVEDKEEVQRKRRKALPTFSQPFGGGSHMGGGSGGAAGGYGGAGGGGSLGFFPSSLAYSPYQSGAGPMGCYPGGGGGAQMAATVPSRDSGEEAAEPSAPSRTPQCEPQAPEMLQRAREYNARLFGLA

[7] = target: T3, full-length human I-κBα (free form), P25963
T3 chain: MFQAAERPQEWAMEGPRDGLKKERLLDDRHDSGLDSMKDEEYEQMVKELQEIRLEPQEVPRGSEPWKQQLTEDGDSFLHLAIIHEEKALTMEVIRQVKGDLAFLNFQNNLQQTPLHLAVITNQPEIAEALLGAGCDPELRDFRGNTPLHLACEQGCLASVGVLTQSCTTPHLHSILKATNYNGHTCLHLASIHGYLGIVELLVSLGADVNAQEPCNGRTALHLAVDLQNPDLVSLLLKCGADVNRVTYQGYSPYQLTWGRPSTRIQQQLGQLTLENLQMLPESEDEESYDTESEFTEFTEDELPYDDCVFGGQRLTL

CNC(=N)NCCC[C@H](N)C(=O)O [NMMA, N^G-monomethyl-L-arginine]
NO secretion (BV-2 microglia): reduced NO secretion in a dose-dependent manner
TGase activity (TGase 2 [1]): did not affect

KVLDGQDP (pro-elafin/antiflammin sequence) [R2 peptide]
cytosolic I-κBα level (TGase 2 [2]): reduce the cytosolic I-κBα level almost to the control level

DPVKG (pro-elafin sequence) [E2 peptide]
cytosolic I-κBα level (TGase 2 [2]): reduce the cytosolic I-κBα level almost to the control level

CC[C@H](C)[C@H](NC(=O)OCc1ccccc1)C(=O)N[C@@H](CCC(=O)OC(C)(C)C)C(=O)N[C@@H](C)C(=O)N[C@H](C=O)CC(C)C [carbobenzoxy-L-isoleucyl-gamma-t-butyl-L-alanyl-L-leucinal] (Cbz-IE(OtBu)AL-aldehyde)
increased ubiquitinated I-κBα (I-κBα): not detected
level of I-κBα (I-κBα): increased
LDH activity in the medium (SH-SY5Y/TG cells [3]): not detected
caspase-9 expression by Western blotting (SH-SY5Y/TG cells [3]): not detected

CC(=O)N[C@@H](CSC(=O)[C@]1([C@@H](O)C(C)C)NC(=O)[C@H](C)[C@@H]1O)C(=O)O [lactacystin]
increased ubiquitinated I-κBα (I-κBα): not detected
level of I-κBα (I-κBα): increased
LDH activity in the medium (SH-SY5Y/TG cells [4]): not detected
caspase-9 expression by Western blotting (SH-SY5Y/TG cells [4]): not detected

polymerized I-κBα (full-length human I-κBα cross-linked by TGase 2) (from UniProt P25963 1-317)
loss of binding efficiency relative to free I-κBα [5]: > 90%

NC(=O)CI [idoacetamide, Iodoacetamide]
cytosolic I-κBα level (TGase 2 [2]): reduce the cytosolic I-κBα level almost to the control level

NCCSSCCN [cystamine, Cystamine]
cytosolic I-κBα level (TGase 2 [2]): reduce the cytosolic I-κBα level almost to the control level

CC(C)C[C@@H](C=O)NC(=O)[C@H](CC(C)C)NC(=O)[C@H](CC(C)C)NC(=O)OCc1ccccc1 [MG132] (Cbz-Leu-Leu-Leu-aldehyde)
increased ubiquitinated I-κBα (I-κBα): not detected
level of I-κBα (I-κBα): increased
LDH activity in the medium (SH-SY5Y/TG cells [3]): not detected
caspase-9 expression by Western blotting (SH-SY5Y/TG cells [3]): not detected

B1: guinea pig liver TGase 2 (protein)
chain: AEDLILERCDLQLEVNGRDHRTADLCRERLVLRRGQPFWLTLHFEGRGYEAGVDTLTFNAVTGPDPSEEAGTMARFSLSSAVEGGTWSASAVDQQDSTVSLLLSTPADAPIGLYRLSLEASTGYQGSSFVLGHFILLYNPRCPADAVYMDSDQERQEYVLTQQGFIYQGSAKFINGIPWNFGQFEDGILDICLMLLDTNPKFLKNAGQDCSRRSRPVYVGRVVSAMVNCNDDQGVLQGRWDNNYSDGVSPMSWIGSVDILRRWKDYGCQRVKYGQCWVFAAVACTVLRCLGIPTRVVTNFNSAHDQNSNLLIEYFRNESGEIEGNKSEMIWNFHCWVESWMTRPDLEPGYEGWQALDPTPQEKSEGTYCCGPVPVRAIKEGHLNVKYDAPFVFAEVNADVVNWIRQKDGSLRKSINHLVVGLKISTKSVGRDEREDITHTYKYPEGSEEEREAFVRANHLNKLATKEEAQEETGVAMRIRVGQNMTMGSDFDIFAYITNGTAESHECQLLLCARIVSYNGVLGPVCSTNDLLNLTLDPFSENSIPLHILYEKYGDYLTESNLIKVRGLLIEPAANSYVLAERDIYLENPEIKIRVLGEPKQNRKLIAEVSLKNPLPVPLLGCIFTVEGAGLTKDQKSVEVPDPVEAGEQAKVRVDLLPTEVGLHKLVVNFECDKLKAVKGYRNVIIGPA
polymerization of NF-κB(p52) (in vitro cross-linking, Coomassie staining) [6]: The same polymerization was not observed
polymerization of I-κBα (in vitro cross-linking, Western blotting) [7]: resulted in completely polymerized I-κBα

Reference: US20060286608A1, “Method for screening transglutaminase 2 inhibitor or activator” (priority 2005, published 2006)
